Data set [1] deals with HCV Replicon (HCV IRES driven luciferase reporter in Huh-Luc-Neo cells). In words: HCV Replicon Luciferase Assay. It is filed as cell-based. The settings on record: Hepatitis C virus, 48 h, no unit in table, hit threshold in μM. As to the method: (§1) The identification of inhibitors of HCV replication and/or proliferation has been facilitated by the development of a cell based system to study HCV replication and assay for HCV inhibitors. Inhibition of HCV replication may be performed using the HCV Replicon Assay developed in the laboratories of Bartenschlager (Lohman et al, Science 285, 110-113, 1999) and Rice (Blight et al, Science 290, 1972-1974, 2000). The assay is performed using the Huh-Luc-Neo cell line (Lohman et al, Science 285, 110-113, 1999). Huh-Luc-Neo cells are a human hepatoma cell line (Huh-7) stably expressing a bi-cistronic subgenomic replicon containing the HCV IRES in which the structural proteins of HCV had been deleted and replaced by a construct containing sequences coding for the firefly luciferase reporter gene, the neomycin selectable marker and the EMCV IRES to direct expression of a truncated HCV genome expressing the […] NS3, NS4A, NS4B, NS5A, and NS5B. HCV targets through which inhibitors could act to inhibit replication include the NS3 protease, the helicase/ATPase, NS5A, the NS5B- RNA dependent RNA polymerase, and the HCV IRES.
(§2) Expression of HCV IRES driven luciferase reporter activity and HCV RNA is measured to obtain indirect and direct measures of replication of HCV RNA respectively. Inhibitors of HCV replication and/or proliferation are determined by initially identifying molecules that inhibit expression of the HCV IRES driven luciferase reporter in this HCV Replicon Luciferase Assay. Cell viability assays and control cell based luciferase assays are then run on hits identified in the HCV Replicon Luciferase Assay to eliminate cytoxic compounds and non-specific compounds which act by inhibiting the luciferase enzyme.
Day 0 Cell Seeding and Compound Treatment: Huh-Luc-Neo Cells are seeded at 25,000/well in an opaque-walled 96 plate with Growth Medium (DMEM phenol red free+PS+2 mM glutamine; 100 μl/well). The compounds to be tested are added to the experimental wells (10 μl/well at 10× assay concentration) and the cells are then incubated (5% CO2, 37° C.) for 48 h.
(§3) Day 2 Reagent Preparation and Luciferase Assay: The Bright-Glo Luciferase Assay Buffer (Promega) is thawed and equilibrated to room temperature prior to use. The lyophilized Bright-Glo Luciferase Assay Substrate is equilibrated to room temperature prior to use. 10 ml of Bright-Glo Luciferase Assay Buffer is transferred to 1 vial of Bright-Glo Luciferase Assay Substrate bottle and mixed by gently with a Vortex. 100 ul of Bright-Glo Luciferase Assay reagent (Bright-Glo Luciferase Assay Buffer+Bright-Glo Luciferase Assay Substrate Mixture) is added to each well. The well contents are mixed for 5 min. on an orbital shaker at room temperature to induce cell lysis and the luminescence is then measured using a luminometer. The data is analyzed and IC50s are determined using GraphPad Prism 4 software. Hits validated in the Replicon Luciferase assay have IC50s<8.0 μM and show<30% inhibition of Cell Viability at a compound concentration of 100 μM (Cell Titer Glow Assay, cell viability assay conditions identical to HCV Replicon Luciferase Assay conditions).
For orientation: Replicon systems follow genome replication, usually without infectious particles.

Another data set concerns Huh-Luc-Neo cells. In words: CellTiter-Glo Cell Viability Assay. Particulars: for Toxicity % Inhibition at 50 uM (2 doses): inhibition of cell viability at 50 uM, conditions as in Replicon RNA Assay; for Toxicity % Inhibition at 100 um (1 dose): inhibition of cell viability at 100 um, conditions as in Replicon Luciferase Assay (48 h). The class given is cell-based, human. As to the method:
as §3
(§4) Day 3, Quantitative PCR Based Measurement of HCV RNA (Taqman Assay): Quantitative PCR analysis to measure HCV RNA expression from cDNA synthesized on Day 2 is performed using the ABI 9700 HT Sequence Detection System (Applied Biosystems) as previously described (Lohman et al, Science 285, 110-113, 1999). The data is analyzed and IC50s are determined using GraphPad Prism 4 software. Hits validated in the Replicon RNA Assay have IC50s<8.0 μM and show <30% inhibition of Cell Viability at a compound concentration of 50 μM (Cell Titer Glow Assay, cell viability assay conditions identical to HCV Replicon RNA Assay conditions).
Day 0, Cell Seeding and Compound Treatment: Huh-Luc-Neo Cells are seeded at 25,000/well in an opaque-walled 96 plate with Growth Medium (DMEM phenol red free+PS+2 mM glutamine; 100 ul/well). The compounds to be tested for inhibition of cell viability are added to the experimental wells (10 μl/well at 10× assay concentration) and the cells are then incubated (5% CO2, 37° C.) for 48 h.
Day 2, Reagent Preparation and Assay: The CellTiter-Glo Buffer is thawed and equilibrated to room temperature prior to use. The lyophilized CellTiter-Glo Substrate is equilibrated to room temperature prior to use. 10 ml of CeliTiter-Glo Buffer is transferred to 1 vial of CellTiter-Glo Substrate and mixed by gently with a Vortex. 100 μl of CellTiter-Glo Assay reagent (CellTiter-Glo Buffer+CellTiter-Glo Substrate Mixture) is added to each well. The well contents are mixed for 5 min. on an orbital shaker at room temperature to induce cell lysis and the luminescence is then measured using a luminometer.
Background: Cellular ATP, detected with luciferase, serves as a proxy for viable cell number.

In data set [2] the test system is HCV Replicon (HCV RNA in Huh-Luc-Neo cells). In words: HCV Replicon RNA Assay (Taqman). The class given is cell-based, Hepatitis C virus. Particulars: Hepatitis C virus, compound added day 0 and day 1, no unit in table, hit threshold in μM. Here is the method:
as §1, §2
Day 0, Cell Seeding and Compound Treatment: Huh-Luc-Neo Cells are seeded at 25,000/well in an opaque-walled 96 plate with Growth Medium (DMEM phenol red free+PS+2 mM glutamine; 100 μl/well). The compounds to be tested are added to the experimental wells (10 μl/well at 10× assay concentration) and the cells are then incubated (5% CO2, 37° C.).
Day 1, Media Change and Compound Treatment: 24 hours after the initial compound treatment the cell culture media is aspirated from the wells and fresh Growth Medium is added (DMEM phenol red free+PS+2 mM glutamine; 100 μl/well). The compounds to be tested are then added to the appropriate experimental wells (10 μl/well at 10 × assay concentration) and the cells are then incubated (5% CO2, 37° C.) for an additional 24 hrs.
Day 2, RNA Isolation and cDNA Synthesis: The cells are washed with 1× Phosphate Buffered Saline (PBS) once.
as §4

By IC50 is commonly meant the point on the concentration scale where inhibition reaches its midpoint. The low end stands for greater potency, the high end for weaker potency. `COc1ccc(Nc2c(/C=N/c3ccc(C)cc3)c(=O)oc3ccccc23)cc1` [VQ_36472] came in with a 50% inhibitory concentration (IC50) in data set [1] of 0.03 µM. Besides, in the data set with Huh-Luc-Neo cells, the “Toxicity % Inhibition at 50 uM (2 doses)” value is listed as 6.5% and the “Toxicity % Inhibition at 100 um (1 dose)” value was 5.9%. The molecule further yielded an IC50 in data set [2] of 0.85 µM.

Turning to `COc1ccc(Nc2c(/C=N/c3ccc(Cl)cc3)c(=O)oc3ccccc23)cc1` [VQ_36471], the IC50 in data set [1] was 0.04 µM; in data set [2] it was 1.78 µM. Also, the “Toxicity % Inhibition at 50 uM (2 doses)” value in the data set with Huh-Luc-Neo cells is listed as 15.2%. In the data set on Huh-Luc-Neo cells, the “Toxicity % Inhibition at 100 um (1 dose)” value is on record as 9.8%.

On to `COc1ccc2c(OCc3ccccc3C)c(Cc3ccccc3C)c(=O)oc2c1` [VQ_31738], for which the IC50 in data set [1] was determined as 5.44 µM. In addition, in the data set on Huh-Luc-Neo cells, the “Toxicity % Inhibition at 50 uM (2 doses)” value is recorded as 6.1% and the “Toxicity % Inhibition at 100 um (1 dose)” value is 23.6%. In addition, in data set [2], it took 0.21 µM to reach half-maximal inhibition (IC50).

`O=c1oc2ccccc2c(OCc2ccc(C(F)(F)F)cc2)c1Cc1ccc(C(F)(F)F)cc1` [VQ_31712] registered an IC50 in data set [1] of 4.92 µM. In the data set on Huh-Luc-Neo cells, the “Toxicity % Inhibition at 50 uM (2 doses)” value stood at 10.0% and the “Toxicity % Inhibition at 100 um (1 dose)” value is on record as 16.6%. Also, the IC50 in data set [2] was > 30 µM.

Consider `COc1ccc(Nc2c(/C=N/C3CCCCC3)c(=O)oc3ccccc23)cc1` [VQ_36467], for which the IC50 in data set [1] was determined as 51.1 µM; in data set [2] it was 0.46 µM. Further, the “Toxicity % Inhibition at 50 uM (2 doses)” value with Huh-Luc-Neo cells turned out to be 13.9%. The “Toxicity % Inhibition at 100 um (1 dose)” value in the data set with Huh-Luc-Neo cells is reported as 22.8%.

`Cc1ccc(Nc2c(CNc3ncccn3)c(=O)oc3ccccc23)cc1` [VQ_36343]: in data set [1], 0.13 µM corresponded to half-maximal inhibition (IC50). For the same molecule, in the data set with Huh-Luc-Neo cells, the “Toxicity % Inhibition at 50 uM (2 doses)” value worked out at 37.9% and the “Toxicity % Inhibition at 100 um (1 dose)” value stood at 21.1%. Further, inhibition in data set [2] was half-maximal at 0.16 µM (IC50).

Take `Cc1ccc(COc2c(Cc3ccc(C)cc3)c(=O)n(C)c3ccccc23)cc1` [VQ_32833]: the IC50 in data set [1] is 2.89 µM; in data set [2], 0.58 µM. The “Toxicity % Inhibition at 50 uM (2 doses)” value in the data set with Huh-Luc-Neo cells is 20.7%. The “Toxicity % Inhibition at 100 um (1 dose)” value in the data set with Huh-Luc-Neo cells came out at 34.6%.

Regarding `COc1ccc2c(OCc3cccc(Cl)c3)c(Cc3cccc(Cl)c3)c(=O)oc2c1` [VQ_31734], the IC50 in data set [1] is 3.84 µM. Also, in the data set on Huh-Luc-Neo cells, the “Toxicity % Inhibition at 50 uM (2 doses)” value is 0.7% and the “Toxicity % Inhibition at 100 um (1 dose)” value was 4.3%. In data set [2], this molecule yielded an IC50 of 0.67 µM.
